“And” between values parts separate entries of the source, which are not always exact repeats. Identical values can stand only once.
System: NCI-H1876 complex spheroid viability
Assay: Anticancer human tumor NCI-H1876 cell line growth inhibition [LSD1];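 further: spheroids exposed to compounds for one week before readout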;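 on viability, T/C: 100% = DMSO vehicle-treated spheroids so lower means fewer viable cells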
Conditions: for viability, T/C: stronger effect = lower value; active means viability on the fitted dose curve at most 10% of control; inactive means the rest
Outline: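 Complex spheroids of tumor cells with HUVEC and human MSCs, exposed to iadademstat combined with other agents. Each agent tested in half-log steps from near clinical Cmax (else 10 microM top), DMSO ≤0.25%.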

[1] = curve of first compound, second compound 0.1 µM
[2] = curve of first compound, second compound 0.316 µM
[3] = curve of first compound, second compound 1 µM
[4] = curve of first compound, second compound 3.16 µM
[5] = curve of first compound, second compound 10 µM
[6] = second compound 0.1 µM, first compound 0.00949 µM
[7] = second compound 0.1 µM, first compound 0.03 µM
[8] = second compound 0.1 µM, first compound 0.0949 µM
[9] = second compound 0.1 µM, first compound 0.3 µM
[10] = second compound 0.1 µM, first compound 0.949 µM
[11] = second compound 0.1 µM, first compound 3 µM
[12] = second compound 0.316 µM, first compound 0.00949 µM
[13] = second compound 0.316 µM, first compound 0.03 µM
[14] = second compound 0.316 µM, first compound 0.0949 µM
[15] = second compound 0.316 µM, first compound 0.3 µM
[16] = second compound 0.316 µM, first compound 0.949 µM
[17] = second compound 0.316 µM, first compound 3 µM
[18] = second compound 1 µM, first compound 0.00949 µM
[19] = second compound 1 µM, first compound 0.03 µM
[20] = second compound 1 µM, first compound 0.0949 µM
[21] = second compound 1 µM, first compound 0.3 µM
[22] = second compound 1 µM, first compound 0.949 µM
[23] = second compound 1 µM, first compound 3 µM
[24] = second compound 3.16 µM, first compound 0.00949 µM
[25] = second compound 3.16 µM, first compound 0.03 µM
[26] = second compound 3.16 µM, first compound 0.0949 µM
[27] = second compound 3.16 µM, first compound 0.3 µM
[28] = second compound 3.16 µM, first compound 0.949 µM
[29] = second compound 3.16 µM, first compound 3 µM
[30] = second compound 10 µM, first compound 0.00949 µM
[31] = second compound 10 µM, first compound 0.03 µM
[32] = second compound 10 µM, first compound 0.0949 µM
[33] = second compound 10 µM, first compound 0.3 µM
[34] = second compound 10 µM, first compound 0.949 µM
[35] = second compound 10 µM, first compound 3 µM

O=C(C=Cc1cccc(S(=O)(=O)Nc2ccccc2)c1)NO + NC1CC1c1ccc(-c2cccc(O)c2)cc1
178 nM: IC50 [4]
171 nM: IC50 [3]
active: viability, T/C [10] 6.97% | viability, T/C [11] 0.3% | viability, T/C [16] 5.12% | viability, T/C [17] 0.27% | viability, T/C [22] 5.57% | viability, T/C [23] 0.28% | viability, T/C [28] 5.71% | viability, T/C [29] 0.36% | viability, T/C [34] 5.51% | viability, T/C [35] 0.42%
165 nM: IC50 [1] | IC50 [2]
157 nM: IC50 [5]
inactive: viability, T/C [6] 110% | viability, T/C [7] 111% | viability, T/C [8] 81.1% | viability, T/C [9] 16.3% | viability, T/C [12] 107% | viability, T/C [13] 115% | viability, T/C [14] 80.4% | viability, T/C [15] 16.8% | viability, T/C [18] 114% | viability, T/C [19] 109% | viability, T/C [20] 85.6% | viability, T/C [21] 15.9% | viability, T/C [24] 111% | viability, T/C [25] 111% | viability, T/C [26] 87.8% | viability, T/C [27] 18.4% | viability, T/C [30] 108% | viability, T/C [31] 102% | viability, T/C [32] 71.7% | viability, T/C [33] 21.7%

CC1COCCN1c1cc(C2(S(C)(=N)=O)CC2)nc(-c2ccnc3[nH]ccc23)n1 (configuration not stated) + NC1CCC(NC2CC2c2ccccc2)CC1
5470 nM: IC50 [5]
7480 nM: IC50 [1]
inactive: viability, T/C (second compound 0.1 µM, first compound 0.0316 µM) 115% | viability, T/C (second compound 0.1 µM, first compound 0.1 µM) 116% | viability, T/C (second compound 0.1 µM, first compound 0.316 µM) 115% | viability, T/C (second compound 0.1 µM, first compound 1 µM) 124% | viability, T/C (second compound 0.1 µM, first compound 3.16 µM) 91.6% | viability, T/C (second compound 0.1 µM, first compound 10 µM) 35.9% | viability, T/C (second compound 0.316 µM, first compound 0.0316 µM) 119% | viability, T/C (second compound 0.316 µM, first compound 0.1 µM) 129% | viability, T/C (second compound 0.316 µM, first compound 0.316 µM) 117% | viability, T/C (second compound 0.316 µM, first compound 1 µM) 105% | viability, T/C (second compound 0.316 µM, first compound 3.16 µM) 86.2% | viability, T/C (second compound 0.316 µM, first compound 10 µM) 30.7% | viability, T/C (second compound 1 µM, first compound 0.0316 µM) 118% | viability, T/C (second compound 1 µM, first compound 0.1 µM) 116% | viability, T/C (second compound 1 µM, first compound 0.316 µM) 114% | viability, T/C (second compound 1 µM, first compound 1 µM) 113% | viability, T/C (second compound 1 µM, first compound 3.16 µM) 86.6% | viability, T/C (second compound 1 µM, first compound 10 µM) 30.7% | viability, T/C (second compound 3.16 µM, first compound 0.0316 µM) 116% | viability, T/C (second compound 3.16 µM, first compound 0.1 µM) 130% | viability, T/C (second compound 3.16 µM, first compound 0.316 µM) 126% | viability, T/C (second compound 3.16 µM, first compound 1 µM) 110% | viability, T/C (second compound 3.16 µM, first compound 3.16 µM) 80.6% | viability, T/C (second compound 3.16 µM, first compound 10 µM) 28.8% | viability, T/C (second compound 10 µM, first compound 0.0316 µM) 114% | viability, T/C (second compound 10 µM, first compound 0.1 µM) 116% | viability, T/C (second compound 10 µM, first compound 0.316 µM) 113% | viability, T/C (second compound 10 µM, first compound 1 µM) 101% | viability, T/C (second compound 10 µM, first compound 3.16 µM) 73.7% | viability, T/C (second compound 10 µM, first compound 10 µM) 24.2%
6670 nM: IC50 [2]
6720 nM: IC50 [3]
6220 nM: IC50 [4]

CC1COCCN1c1cc(C2(S(C)(=N)=O)CC2)nc(-c2ccnc3[nH]ccc23)n1 (configuration not stated)
inactive: viability, T/C (compound 0.0316 µM) 103% and 104% | viability, T/C (compound 0.1 µM) 109% and 102% | viability, T/C (compound 0.316 µM) 102% and 103% | viability, T/C (compound 1 µM) 102% and 105% | viability, T/C (compound 3.16 µM) 80.3% and 74.2% | viability, T/C (compound 10 µM) 28.5% and 23.1%
6200 nM and 5450 nM: IC50 (curve of compound)

Nc1ncn(C2CC(O)C(CO)S2)c(=O)n1 (configuration not stated) + NC1CC1c1ccc(-c2cccc(O)c2)cc1
> 300 nM: IC50 [1] | IC50 [2] | IC50 [3] | IC50 [5]
289 nM: IC50 [4]
inactive: viability, T/C (second compound 0.1 µM, first compound 0.000949 µM) 115% | viability, T/C (second compound 0.1 µM, first compound 0.003 µM) 111% | viability, T/C [6] 99.4% | viability, T/C [7] 91.2% | viability, T/C [8] 71% | viability, T/C [9] 51.3% | viability, T/C (second compound 0.316 µM, first compound 0.000949 µM) 120% | viability, T/C (second compound 0.316 µM, first compound 0.003 µM) 110% | viability, T/C [12] 99.7% | viability, T/C [13] 86.4% | viability, T/C [14] 73.1% | viability, T/C [15] 54.4% | viability, T/C (second compound 1 µM, first compound 0.000949 µM) 110% | viability, T/C (second compound 1 µM, first compound 0.003 µM) 106% | viability, T/C [18] 103% | viability, T/C [19] 90.1% | viability, T/C [20] 79.4% | viability, T/C [21] 54.8% | viability, T/C (second compound 3.16 µM, first compound 0.000949 µM) 106% | viability, T/C (second compound 3.16 µM, first compound 0.003 µM) 103% | viability, T/C [24] 104% | viability, T/C [25] 89% | viability, T/C [26] 72.1% | viability, T/C [27] 49.1% | viability, T/C (second compound 10 µM, first compound 0.000949 µM) 107% | viability, T/C (second compound 10 µM, first compound 0.003 µM) 100% | viability, T/C [30] 97.2% | viability, T/C [31] 96.3% | viability, T/C [32] 69.2% | viability, T/C [33] 50.4%

NS(=O)(=O)OCC1CC(n2ccc3c(NC4CCc5ccccc54)ncnc32)CC1O (configuration not stated) + NC1CCC(NC2CC2c2ccccc2)CC1
78 nM: IC50 [2]
68.9 nM: IC50 [4]
inactive: viability, T/C [6] 78.2% | viability, T/C [7] 60.1% | viability, T/C [8] 56.1% | viability, T/C [9] 36.6% | viability, T/C [10] 36.1% | viability, T/C [11] 31.7% | viability, T/C [12] 75.3% | viability, T/C [13] 60.5% | viability, T/C [14] 47.2% | viability, T/C [15] 39.4% | viability, T/C [16] 37.9% | viability, T/C [17] 31.4% | viability, T/C [18] 83.5% | viability, T/C [19] 62.3% | viability, T/C [20] 46.8% | viability, T/C [21] 35.1% | viability, T/C [22] 34.2% | viability, T/C [23] 30.1% | viability, T/C [24] 70.9% | viability, T/C [25] 57.9% | viability, T/C [26] 48.4% | viability, T/C [27] 35.9% | viability, T/C [28] 33.6% | viability, T/C [29] 28.8% | viability, T/C [30] 77.3% | viability, T/C [31] 63% | viability, T/C [32] 47.6% | viability, T/C [33] 37% | viability, T/C [34] 32.3% | viability, T/C [35] 24.4%
101 nM: IC50 [1]
83 nM: IC50 [5]
71.8 nM: IC50 [3]
